According to patent US12257235B2, “Methods and materials for using ruminococcus gnavus or clostridium sporogenes to treat gastrointestinal disorders” (Mayo Foundation for Medical Education and Research, priority 2015, dated 2025):
Entries after “also recorded” stand apart in the source; their conditions may differ. Where two headings read alike, the source gives them in different places.

Tests used:
CLOSPO_02083 [1] = molecular target: T1, CLOSPO_02083 (Clostridium sporogenes, UniProt J7SZ64); experiment: Inhibition of CLOSPO_02083 tryptamine production by (S)-α-FMT, progress curves; type: biochemical; settings: CLOSPO_02083, 10 mM Trp
T1 construct: His6 (N); made in house; host or cells: E. coli BL21 (DE3)
T1 sequence (J7SZ64 whole entry): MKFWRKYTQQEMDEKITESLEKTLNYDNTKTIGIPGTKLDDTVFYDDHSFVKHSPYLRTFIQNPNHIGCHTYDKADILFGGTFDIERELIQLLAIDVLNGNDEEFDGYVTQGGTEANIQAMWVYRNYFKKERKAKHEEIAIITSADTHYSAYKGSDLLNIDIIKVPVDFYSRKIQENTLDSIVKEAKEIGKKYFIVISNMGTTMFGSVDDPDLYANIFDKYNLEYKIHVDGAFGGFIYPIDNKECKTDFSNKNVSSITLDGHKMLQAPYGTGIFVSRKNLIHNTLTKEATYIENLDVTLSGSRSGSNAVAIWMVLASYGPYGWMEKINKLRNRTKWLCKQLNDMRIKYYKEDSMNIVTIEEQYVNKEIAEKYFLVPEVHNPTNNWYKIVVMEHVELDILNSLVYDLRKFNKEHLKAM
Excerpt: (§1) Progress curves were fitted to the equation [P]=(vi/kobs)(1−exp(−kObst)), where P is the product formed at time t, vi is the initial velocity, and kobs is the apparent first-order rate constant for enzyme inactivation. The kobs were plotted versus inhibitor concentration and fitted to the equation kobs=kinact[I]/(Kapp+[I]), where Kapp is the apparent dissociation constant of the reversible enzyme-inhibitor complex, and kinact is the first-order rate constant for apparent irreversible conversion of the enzyme-inhibitor complex to covalently bound complex. Ki values were calculated using the equation Ki=Kapp/(1+[tryptophan])/Km,Trp) using experimentally determined Km values for tryptophan (Schirmer et al., Proc. Natl. Acad. Sci. USA, 103(11):4234-4239 (2006)).
(§2) The production of tryptamine was measured by HPLC in the presence of various concentrations of inhibitor over 30 minutes and progress curves of the reaction were analyzed to assess the kinetics of inhibition.

RUMGNA_01526 [2] = molecular target: T2, RUMGNA_01526 (Mediterraneibacter gnavus, UniProt A7B1V0); experiment: Inhibition of RUMGNA_01526 tryptamine production by (S)-α-FMT, progress curves; type: biochemical, Ruminococcus gnavus; settings: RUMGNA_01526, 2.5 mM Trp
T2 construct: His6 (N); made in house; host or cells: E. coli BL21 (DE3)
Excerpt: as §1, §2

[3] = test system: proximal colon, stripped of external muscle layers; experiment: Ussing chamber short circuit current of proximal colon from GF, HM and CR mice; settings: for EC50: Mus musculus; for EC50 / Emax (Δ Isc): serosal; for cumulative concentration response curves (intestinal secretion): serosal application, GF vs HM and CR mice
Description: Colonic mucosal transepithelial resistance (TER) was measured at the beginning of each experiment and FITC Dextran (4 k Da) flux was determined from the linear fit of samples obtained from the serosal side every 5 minutes for 30 minutes after adding 1 mg/mL FITC-Dextran to the mucosal side. Change in short circuit current (Δ lsc) was determined in response to electrical field stimulation (EFS) using foil electrodes on the submucosal side (30-150V, 100 0.5 ms pulses at 1-2 Hz). There was no significant difference in Δ lsc between GF and HM in response to EFS at 1 Hz (138±42 vs 202±71 μA/cm^2; n=4; p>0.05) or 2 Hz (180±28 vs 252±70 μA/cm^2; n=4; p>0.05).
Acetylcholine (Ach) in increasing concentrations (0.01-300 μM) on the serosal side was used as a control for tissue reactivity. Cumulative concentration response curves induced by serosal ACh were not different between GF and HM as evident by similar Emax (261±38 vs 299±27 μA/cm^2; n=5; p>0.05) and EC50 (20.6±3 vs 22.7±9 μM) values.

[4] = test system: tryptophan hydroxylase 1 (Tph1) mRNA expression in BON cells
Description: Cells were plated at 1×10^5 per ml and grown to 90% confluency in 12-well culture plates. Culture wells were then treated (in triplicate) with tryptamine in media for 6 hours, fixed in RNA Protect (Qiagen) and subjected to qRT-PCR.

CLOSPO_02083 [5] = molecular target: T1, CLOSPO_02083; type: biochemical; settings: for decarboxylation of Phe by CLOSPO_02083: up to 90 mM substrate, 60 minutes
Description: (§3) Reaction mixtures contained 50 mM sodium phosphate pH 6.5, 300 mM NaCl, and […] PLP. Reactions were initiated by the addition of enzyme and terminated by quenching aliquots with 1 volume of MeOH and performed at 37° C. All substrates purchased from Sigma-Aldrich.
(§4) Under the same buffer and reaction conditions, the kinetic parameters for the decarboxylation of phenylalanine by RUMGNA_01526 were determined by adding RUMGNA_01526 to a final concentration of 500 nM, and the concentration of phenylalanine varied from 5-80 mM. Reactions proceeded for 10 minutes. The kinetic parameters for the decarboxylation of tryptophan by CLOSPO_02083 were determined by adding CLOSPO_02083 to a final concentration of 100 nM, and the concentration of tryptophan varied from 0.15-24.5 mM. Reactions proceeded for 6 minutes.
To gain insight into the substrate selectivity of CLOSPO_02083, the basic kinetic parameters were measured for CLOSPO_02083-catalyzed decarboxylation of the aromatic amino acids Trp, Tyr, and phenylalanine (Phe). To determine kcat and Km for CLOSPO_02083, the concentration of the amino acid substrate was varied under initial velocity conditions (FIGS. 3C and 4A).

RUMGNA_01526 [6] = molecular target: T2, RUMGNA_01526; type: biochemical, Ruminococcus gnavus
Description: as §3
To determine the kinetic parameters for the decarboxylation of tryptophan by RUMGNA 01526, RUMGNA_01526 was added to a final concentration of 10 nM, and kcat and Km were determined by varying the concentration of tryptophan from 0.15-10 mM. Reactions proceeded for 7 minutes and were quenched as described. 100 μL of the quenched reaction was analyzed by HPLC. Peak areas were integrated and compared with a standard curve to calculate product concentration. Triplicate measurements were made from a single batch of purified enzyme. Initial velocity data were fit to the Michaelis-Menten equation by using the program GraphPad. The allosteric sigmoidal model was used by fitting to the Hill equation: y=vmax*x^h/(K0.5^h+x^h), where h is the Hill coefficient and K0.5 is the apparent concentration at half maximal velocity.
as §4
Basic kinetic parameters were measured for the decarboxylation of Trp, Tyr, and Phe by RUMGNA_01526.

5HTR4 = settings: for response (Δ Isc) to mucosal application / response (Δ Isc) to serosal application: 5HTR4 KO mice
Description: The response to […] (5HT; 0.003-300 μM) on the mucosal or serosal side and tryptamine (0.003-3000 μM) on the mucosal or serosal side was determined in segments of proximal colon, stripped of external muscle layers, from both 5HTR4 KO and WT mice.

[7] = test system: proximal colon, stripped of external muscle layers; experiment: Ussing chamber short circuit current of proximal colon from GF, HM and CR mice; settings: HM or CR mice
[8] = test system: full-thickness colonic segments; experiment: Open organ bath intraluminal pressure of mouse colonic segments ex vivo
Description: Preparations of full-thickness colonic segments (˜1.5 cm) were allowed to equilibrate in 37° C. Kreb's-jacketed organ baths with their distal ends opening to a pressure transducer and maintained under basal pressure of 5-cm column of vehicle (RL). The proximal end was closed during pressure recordings but opened to allow luminal infusion of vehicle or tryptamine in solution (100 μM, 1 mM and 3 mM; 10 minutes per treatment; n=5-7 mice).

[9] = test system: proximal-mid colon, stripped of external muscle layers; experiment: Ion secretion from the murine colon, Ussing chamber short circuit current; set-up: species or system SvEv129 mice; settings: 3 mM tryptamine, mucosal side
Description: A segment of proximal-mid colon, stripped of external muscle layers from each of three SvEv129 mice was mounted in 0.3 cm^2 area, 4 mL Ussing chamber. […] (FIG. 6).
The function of tryptamine in the context of microbe-host signaling in the gut was examined. An experiment to test whether tryptamine is capable of inducing ion secretion by intestinal epithelial cells was performed. Using an Ussing chamber, a segment of proximal-mid murine colon mucosa was exposed to two concentrations of tryptamine and the change of short circuit current was measured.

[10] = at the highest concentration of Tyr tested
[11] = any of the tryptamine concentrations
[12] = 1 μM enzyme, 2.28 mM tyrosine, 90 minutes

## N[C@@](CF)(Cc1c[nH]c2ccccc12)C(=O)O [(S)-α-FMT, (S)-α-fluoromethyltryptophan]
CLOSPO_02083 [1]
  Ki: 0.2 µM
  kinact: 0.00167 s⁻¹
RUMGNA_01526 [2]
  Ki: 178 µM
  kinact: 0.02 s⁻¹

## CC(=O)OCC[N+](C)(C)C [ACh, Acetylcholine]
[3]; GF mice
  EC50: 20.6 ± 3 µM
  Emax (Δ Isc): 261±38 μA/cm^2
[3]; HM mice
  EC50: 22.7 ± 9 µM
  Emax (Δ Isc): 299±27 μA/cm^2

## CCCC(=O)O [Butyrate, butyrate]
[4]; butyrate 500 μM
  Tph1 mRNA induction above controls: 3.5 fold
[4]; butyrate 1 mM
  Tph1 mRNA induction above controls: 2.5 fold

## N[C@@H](Cc1ccccc1)C(=O)O [Phe, phenylalanine]
CLOSPO_02083 [5]; 1 μM enzyme
  decarboxylation of Phe by CLOSPO_02083: undetectable
CLOSPO_02083 [5]; 1 μM enzyme, listed as phenylalanine
  decarboxylation of Phe by CLOSPO_02083: not observed

## N[C@@H](Cc1c[nH]c2ccccc12)C(=O)O [Trp, tryptophan]
RUMGNA_01526 [6]; RUMGNA_01526
  Km for Trp relative to Phe (lower): 70 fold
  catalytic efficiency for Trp relative to Phe: > 1000 fold
  kcat for Trp relative to Phe (higher): 19 fold
RUMGNA_01526 [6]; [10]
  efficiency of decarboxylating Trp relative to Tyr: 1000 fold
RUMGNA_01526 [6]; decarboxylation of Trp by RUMGNA_01526
  kcat: 73.33 s⁻¹
RUMGNA_01526 [6]; decarboxylation of Trp by RUMGNA_01526, 10 nM enzyme, 37° C.
  Km: 1100 ± 100 µM
CLOSPO_02083 [5]; [10]
  efficiency of decarboxylating Trp relative to Tyr: 600 fold
CLOSPO_02083 [5]; decarboxylation of Trp by CLOSPO_02083
  kcat: 20 s⁻¹
CLOSPO_02083 [5]; decarboxylation of Trp by CLOSPO_02083, 100 nM enzyme, 37° C.
  Km: 2800 µM

## CC(=O)O [acetate]
[4]; acetate 10 mM
  Tph1 expression induction: 2.5 fold
[4]; acetate 30 mM
  Tph1 expression induction: 3.2 fold
[4]; acetate 50 mM
  Tph1 expression induction: 2.2 fold

## NCCc1c[nH]c2ccc(O)cc12 [serotonin, 5-hydroxy tryptamine, reference compound]
5HTR4
  response (Δ Isc) to mucosal application: no response
  response (Δ Isc) to serosal application: decreased responsiveness
[7]
  biological effect in the presence of 5HT3 receptor antagonist: blocked the biological effect
  biological effect in the presence of 5HT4 receptor antagonist: blocked the biological effect
  maximal response (Emax) in the presence of 5HT3 receptor antagonist: can be blocked
  maximal response (Emax) in the presence of 5HT4 receptor antagonist: can be blocked
[3]
  cumulative concentration response curves (intestinal secretion): significantly higher in GF compared to HM and CR

## NCCc1c[nH]c2ccccc12 [tryptamine]
5HTR4
  response (Δ Isc) to mucosal application: no response
  response (Δ Isc) to serosal application: no response
5HTR4; mucosal application of 3000 μM, 5HTR4 WT mice, maximum response not reached
  Δ Isc response: 99.5±30.7
5HTR4; serosal application, 5HTR4 WT mice
  Emax (Δ Isc): 110±17 μA/cm2
[8]; any of the luminal tryptamine treatments
  contractile duration, measured at half amplitude, vs vehicle: not significantly different
[8]; [11]
  contractile magnitude, area under the curve, vs vehicle: not significantly different
  mean contractile amplitude vs vehicle: not significantly different
[8]; luminal 100 μM, 1 mM and 3 mM
  contractile frequency vs vehicle controls: not significantly different
[8]; luminal 1 mM tryptamine, vehicle control 4.1±0.6, P=0.15
  contractile frequency: 5.9±0.8
[9]
  change in short circuit current (ion secretion): significant change in short circuit current; also recorded: significant increase
[4]; 1 μM, 5 μM, 10 μM and 20 μM, 6 hours
  alteration of Tph1 mRNA levels: None of the tested tryptamine concentrations (1 μM, 5 μM, 10 μM, and 20 μM) reproducibly showed a significant alteration
[7]
  biological effect in the presence of 5HT3 receptor antagonist: did not block
  biological effect in the presence of 5HT4 receptor antagonist: blocked the biological effect
  maximal response (Emax) in the presence of 5HT3 receptor antagonist: is not blocked
  maximal response (Emax) in the presence of 5HT4 receptor antagonist: can be blocked
[3]
  cumulative concentration response curves (intestinal secretion): significantly higher in GF compared to HM and CR

## N[C@@H](Cc1ccc(O)cc1)C(=O)O [tyrosine]
RUMGNA_01526 [6]; [12]
  decarboxylation of tyrosine by RUMGNA_01526: observed
CLOSPO_02083 [5]; [12]
  decarboxylation of tyrosine by CLOSPO_02083: observed
